Legend:
[1] = biological target: T1, EGFR-L858R/T790M/C797S (Homo sapiens, UniProt P00533, C797S/L858R/T790M); experiment: EGFR degradation HTRF assay in H1975-clone #25 cells; format: cell-based; details: 16 h treatment; for DC50: H1975-clone #25 (L858R/T790M/C797S) cells, IC50 (DC50), read-out: DC50(nM) H1975 # 25-LTC; for Dmax: NCI-H1975, H1975-clone #25 (L858R/T790M/C797S) cells, maximum percentage of inhibition (degradation), read-out: Dmax (%) H1975 # 25-LTC
T1 construct: expressed in transfected cells; host or cells: H1975-clone #25 (lentiviral over-expression, endogenous EGFR knocked out)
Protocol: (§1) H1975-clone #28(Del19/T790M/C797S) and H1975-clone #25(L858R/T790M/C797S). EGFR-Del19/T790M/C797S and EGFR-L858R/T790M/C797S were stably expressed in H1975 cell lines by lentivirus-mediated over-expression, respectively. The EGFR over-expressed cells then underwent knockout, in which the EGFR targeting sgRNA was designed to only target the endogenous EGFR copies and preserve the exogenous EGFR copies. Followed by knockout, the edited H1975 cells were seeded in 96 well plates at the concentration of […], cultured for about 2 weeks to allow single clones formation. The formed clones were screened by DNA sequencing and whole exon sequencing analysis for the desired edition.
(§2) H1975-clone #28, and H1975-clone #25 were finally confirmed as homozygous Del19/T790M/C797S EGFR, and L858R/T790M/C797S EGFR clones, respectively.
(§3) H1975-#25 and H1975-#28 cells are treated with compounds diluted in 0.2% DMSO cell culture medium on day 2, incubate for 16 h, 37° C., 5% CO2. the final concentration of compounds in all assay is start with 10 uM, 5-fold dilution, total 8 doses were included.
(§4) After 16 h treatment, add HTRF lysis buffer to each well; seal the plate and incubate 1 hour at room temperature on a plate shaker; Once the cells are lysed, 16 μL of cell lysate are transferred to a PE 384-well HTRF detection plate; 4 μL of pre-mixed HTRF antibodies are added to each well; Cover the plate with a plate sealer, spin 1000 rpm for 1 min, Incubate overnight at room temperature; Read on BMG PheraStar with HTRF protocol (337 nm-665 nm-620 nm).
(§5) The inhibition (degradation) percentage of the compound was calculated by the following equation:
(§6) Inhibition percentage of Compound=100−100×(Signal−low control)/(High control−low control),
(§7) The IC50 (DC50) value of a compound can be obtained by fitting the following equation
(§8) Wherein, X and Y are known values, and IC50, Hillslope, Top and Bottom are the parameters obtained by fitting with software. Y is the inhibition percentage (calculated from the equation), X is the concentration of the compound; IC50 is the concentration of the compound when the 50% inhibition is reached. The smaller the IC50 value is, the stronger the inhibitory ability of the compound is. Vice versa, the higher the IC50 value is, the weaker the ability the inhibitory ability of the compound is; Hillslope represents the slope of the fitted curve, generally around 1 *; Bottom represents the minimum value of the curve obtained by data fitting, which is generally 0%±20%; Top represents the maximum value of the curve obtained by data fitting, which is generally 100%±20%. The experimental data were fitted by calculating and analyzing with Dotmatics data analysis software.

[2] = system: EGFR-Del19/T790M/C797S; experiment: EGFR degradation HTRF assay in H1975-clone #28 cells; format: cell-based; details: H1975-clone #28 (Del19/T790M/C797S) cells, 16 h treatment; for DC50: IC50 (DC50), read-out: DC50(nM) H1975 # 28 DTC; for Dmax (%) H1975 # 28 DTC: maximum percentage of inhibition (degradation)
Protocol: as §1, §2, §3, §4, §5, §6, §7, §8

T1 sequence (P00533 25-1210 T790M/C797S/L858R): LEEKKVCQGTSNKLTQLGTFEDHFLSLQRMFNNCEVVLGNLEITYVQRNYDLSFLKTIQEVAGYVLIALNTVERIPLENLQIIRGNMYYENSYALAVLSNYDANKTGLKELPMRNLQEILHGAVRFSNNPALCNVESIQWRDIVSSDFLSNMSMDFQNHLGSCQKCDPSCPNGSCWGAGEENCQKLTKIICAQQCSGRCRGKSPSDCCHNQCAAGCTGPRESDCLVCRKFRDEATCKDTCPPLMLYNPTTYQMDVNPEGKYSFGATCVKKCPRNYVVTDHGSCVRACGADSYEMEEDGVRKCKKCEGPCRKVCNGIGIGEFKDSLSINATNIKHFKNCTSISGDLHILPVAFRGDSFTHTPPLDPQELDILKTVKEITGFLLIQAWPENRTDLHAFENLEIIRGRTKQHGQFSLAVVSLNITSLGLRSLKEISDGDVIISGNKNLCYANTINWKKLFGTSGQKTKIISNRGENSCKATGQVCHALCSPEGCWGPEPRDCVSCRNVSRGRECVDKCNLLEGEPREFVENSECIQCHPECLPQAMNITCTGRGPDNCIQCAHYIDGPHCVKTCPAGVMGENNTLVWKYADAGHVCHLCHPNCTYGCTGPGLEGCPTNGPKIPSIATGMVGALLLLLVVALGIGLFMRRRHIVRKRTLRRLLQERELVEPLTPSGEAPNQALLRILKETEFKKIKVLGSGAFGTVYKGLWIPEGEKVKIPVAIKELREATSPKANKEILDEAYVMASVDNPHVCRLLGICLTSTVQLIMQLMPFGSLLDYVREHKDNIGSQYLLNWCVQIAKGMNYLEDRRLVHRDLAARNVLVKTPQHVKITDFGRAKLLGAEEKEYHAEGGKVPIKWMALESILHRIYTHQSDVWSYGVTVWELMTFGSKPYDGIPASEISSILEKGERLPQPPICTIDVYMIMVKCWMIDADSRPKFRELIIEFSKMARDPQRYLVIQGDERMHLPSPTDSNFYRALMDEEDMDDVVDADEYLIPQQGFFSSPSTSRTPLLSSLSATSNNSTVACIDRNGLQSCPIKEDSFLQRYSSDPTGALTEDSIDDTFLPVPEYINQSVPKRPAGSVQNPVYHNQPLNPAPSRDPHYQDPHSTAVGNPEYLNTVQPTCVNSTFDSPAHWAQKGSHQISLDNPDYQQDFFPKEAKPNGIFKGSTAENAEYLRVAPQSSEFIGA

CCc1ccc2c(P(C)(C)=O)c(Nc3nc(Nc4cc(C)c(N5CCC6(CCN(CCc7cccc8c7n(C)c(=O)n8C7CCC(=O)NC7=O)CC6)CC5)cc4OC)ncc3Br)ccc2n1 (stereo not drawn) [Example 68, 3-(4-(2-(9-(4-((5-bromo-4-((5-(dimethylphosphoryl)-2-ethylquinolin-6-yl)amino)pyrimidin-2-yl)amino)-5-methoxy-2-methylphenyl)-3,9-diazaspiro[5.5]undecan-3-yl)ethyl)-3-methyl-2-oxo-2,3-dihydro-1H-benzol[d]imidazol-1-yl)piperidine-2,6-dione]
DC50 [1]: 3.1 nM | Dmax [1]: 81% | DC50 [2]: 2.2 nM | Dmax (%) H1975 # 28 DTC [2]: 82%

CCc1cc(Nc2ncc(Br)c(Nc3ccc4nc(C)c(F)cc4c3P(C)(C)=O)n2)c(OC)cc1N1CCC(N2CC3(CN(c4cc(F)c([C@H]5CCC(=O)NC5=O)c(F)c4)C3)C2)CC1 [Example 60, (R)-3-(4-(6-(1-(4-((5-bromo-4-((5-(dimethylphosphoryl)-3-fluoro-2-methylquinolin-6-yl)amino)pyrimidin-2-yl)amino)-2-ethyl-5-methoxyphenyl)piperidin-4-yl)-26-diazaspiro[3.3]heptan-2-yl)-2,6-difluorophenyl)piperidine-2,6-dione]
DC50 [1]: 1.1 nM | Dmax [1]: 95% | DC50 [2]: 0.5 nM | Dmax (%) H1975 # 28 DTC [2]: 95%

CCOc1cc(N2CCC(N3CCC4(CC3)CN(c3cc(F)c([C@H]5CCC(=O)NC5=O)c(F)c3)C4)CC2)c(CC)cc1Nc1ncc(Br)c(Nc2ccc3nc(CC)ncc3c2P(C)(C)=O)n1 (single isomer, unassigned) [Example 19]
DC50 [1]: 1.9 nM | Dmax [1]: 93% | DC50 [2]: 1.1 nM | Dmax (%) H1975 # 28 DTC [2]: 91%

CCc1cc(Nc2ncc(Br)c(Nc3ccc4nc(C)c(F)cc4c3P(C)(C)=O)n2)c(OC)cc1N1CCC2(CCN(CC3CCN(c4cc5c(cc4F)C(=O)N(C4CCC(=O)NC4=O)C5=O)CC3)CC2)CC1 (stereo not drawn) [Example 47, 5-(4-((9-(4-((5-bromo-4-((5-(dimethylphosphoryl)-3-fluoro-2-methylquinolin-6-yl)amino)pyrimidin-2-yl)amino)-2-ethyl-5-methoxyphenyl)-3,9-diazaspiro[5.5]undecan-3-yl)methyl)piperidin-1-yl)-2-(2,6-dioxopiperidin-3-yl)-6-fluoroisoindoline-1,3-dione]
DC50 [1]: 16 nM | Dmax [1]: 88% | DC50 [2]: 14.3 nM | Dmax (%) H1975 # 28 DTC [2]: 73%

CCc1cc(Nc2ncc(Cl)c(Nc3ccc4nc(C)c(F)cc4c3P(C)(C)=O)n2)c(OC)cc1N1CC2(C1)CN(C1CCN(c3cc(F)c([C@H]4CCC(=O)NC4=O)c(F)c3)CC1)C2 [Example 61, (R)-3-(4-(4-(6-(4-((5-chloro-4-((5-(dimethylphosphoryl)-3-fluoro-2-methylquinolin-6-yl)amino)pyrimidin-2-yl)amino)-2-ethyl-5-methoxyphenyl)-2,6-diazaspiro[3.3]heptan-2-yl)piperidin-1-yl)-2,6-difluorophenyl)piperidine-2,6-dione]
DC50 [1]: 1.2 nM | Dmax [1]: 94% | DC50 [2]: 0.9 nM | Dmax (%) H1975 # 28 DTC [2]: 94%

COc1cc(N2CCC3(CC2)CCN(C2CCN(c4cc(F)c([C@H]5CCC(=O)NC5=O)c(F)c4)CC2)CC3)c(C)cc1Nc1ncc(Br)c(Nc2ccc3nc(C)ncc3c2P(C)(C)=O)n1 [Example 66, (R)-3-(4-(4-(9-(4-((5-bromo-4-((5-(dimethylphosphoryl)-2-methylquinazolin-6-yl)amino)pyrimidin-2-yl)amino)-5-methoxy-2-methylphenyl)-3,9-diazaspiro[5.5]undecan-3-yl)piperidin-1-yl)-2,6-difluorophenyl)piperidine-2,6-dione]
DC50 [1]: 6.9 nM | Dmax [1]: 93% | DC50 [2]: 3.5 nM | Dmax (%) H1975 # 28 DTC [2]: 91%

CCc1cc(Nc2ncc(Br)c(Nc3ccc4nc(C)c(F)cc4c3P(C)(C)=O)n2)c(OC)cc1N1CCC2(CCN(CCN(C)c3cccc4c3CN(C3CCC(=O)NC3=O)C4=O)CC2)CC1 (stereo not drawn) [Example 34, 3-(4-((2-(9-(4-((5-bromo-4-((5-(dimethylphosphoryl)-3-fluoro-2-methylquinolin-6-yl)amino)pyrimidin-2-yl)amino)-2-ethyl-5-methoxyphenyl)-3,9-diazaspiro[5.5]undecan-3-yl)ethyl)(methyl)amino)-1-oxoisoindolin-2-yl)piperidine-2,6-dione]
DC50 [1]: 2.8 nM | Dmax [1]: 89% | DC50 [2]: 2.5 nM | Dmax (%) H1975 # 28 DTC [2]: 80%

CCc1cc(Nc2ncc(Br)c(Nc3ccc4nc(C)c(F)cc4c3P(C)(C)=O)n2)c(OC)cc1N1CCC2(CC1)CCN(C1CC(c3cc(F)c([C@H]4CCC(=O)NC4=O)c(F)c3)C1)CC2 (single isomer, unassigned) [Example 5]
DC50 [1]: 3.7 nM | Dmax [1]: 92% | DC50 [2]: 3.1 nM | Dmax (%) H1975 # 28 DTC [2]: 90%

CCc1ncc2c(P(C)(C)=O)c(Nc3nc(Nc4cc(CC)c(N5CCC(N6CC(CN7CCC(c8cc(F)c([C@H]9CCC(=O)NC9=O)c(F)c8)CC7)C6)CC5)cc4OC)ncc3Br)ccc2n1 [Example 55, (R)-3-(4-(1-((1-(1-(4-((5-bromo-4-((5-(dimethylphosphoryl)-2-ethylquinazolin-6-yl)amino)pyrimidin-2-yl)amino)-2-ethyl-5-methoxyphenyl)piperidin-4-yl)azetidin-3-yl)methyl)piperidin-4-yl)-2,6-difluorophenyl)piperidine-2,6-dione]
DC50 [1]: 2.4 nM | Dmax [1]: 92% | DC50 [2]: 5.6 nM | Dmax (%) H1975 # 28 DTC [2]: 91%

CCc1cc(Nc2ncc(Br)c(Nc3ccc4nc(C)c(F)cc4c3P(C)(C)=O)n2)c(OC)cc1N1CCC(N2CCN(C3CN(c4cccc5c4n(C)c(=O)n5C4CCC(=O)NC4=O)C3)CC2)CC1 (stereo not drawn) [Example 22, 3-(4-(3-(4-(1-(4-((5-bromo-4-((5-(dimethylphosphoryl)-3-fluoro-2-methylquinolin-6-yl)amino)pyrimidin-2-yl)amino)-2-ethyl-5-methoxyphenyl)piperidin-4-yl)piperazin-1-yl)azetidin-1-yl)-3-methyl-2-oxo-2,3-dihydro-1H-benzo[d]imidazol-1-yl)piperidine-2,6-dione]
DC50 [1]: 0.9 nM | Dmax [1]: 83% | DC50 [2]: 0.6 nM | Dmax (%) H1975 # 28 DTC [2]: 74%

CCOc1cc(N2CCC(N3CCN(C4CCN(c5cc(F)c([C@H]6CCC(=O)NC6=O)c(F)c5)CC4)CC3)CC2)c(CC)cc1Nc1ncc(Cl)c(Nc2ccc3nc(C)c(F)cc3c2P(C)(C)=O)n1 [Example 54, (R)-3-(4-(4-(4-(1-(4-((5-chloro-4-((5-(dimethylphosphoryl)-3-fluoro-2-methylquinolin-6-yl)amino)pyrimidin-2-yl)amino)-5-ethoxy-2-ethylphenyl)piperidin-4-yl)piperazin-1-yl)piperidin-1-yl)-2,6-difluorophenyl)piperidine-2,6-dione]
DC50 [1]: 3.6 nM | Dmax [1]: 88% | DC50 [2]: 3.6 nM | Dmax (%) H1975 # 28 DTC [2]: 86%

CCc1ncc2c(P(C)(C)=O)c(Nc3nc(Nc4cc(CC)c(N5CCC(N6CCN(C7CN(c8cccc9c8n(C)c(=O)n9C8CCC(=O)NC8=O)C7)CC6)CC5)cc4OC)ncc3Br)ccc2n1 (stereo not drawn) [Example 23, 3-(4-(3-(4-(1-(4-((5-bromo-4-((5-(dimethylphosphoryl)-2-ethylquinazolin-6-yl)amino)pyrimidin-2-yl)amino)-2-ethyl-5-methoxyphenyl)piperidin-4-yl)piperazin-1-yl)azetidin-1-yl)-3-methyl-2-oxo-2,3-dihydro-1H-benzo[d]imidazol-1-yl)piperidine-2,6-dione]
DC50 [1]: 0.9 nM | Dmax [1]: 80% | DC50 [2]: 0.6 nM | Dmax (%) H1975 # 28 DTC [2]: 74%

From patent US20240368203A1, “DEGRADATION OF (EGFR) BY CONJUGATION OF EGFR INHIBITORS WITH E3 LIGASE LIGAND AND METHODS OF USE” (BeiGene, Ltd., priority 2022, published 2024)
